Patent US4018777A, “2-Substituted-5-alkyl resorcinols” (Abbott Laboratories, priority 1975, dated 1977)

Assays:
[1] = system: acetic acid-induced writhing in mice; assay: Analgesic activity, acetic acid writhing test (W); type: in vivo, mouse (Swiss-Webster female)
Description: (§1) The compounds of this invention are useful as analgesic agents, tranquilizers, sedative-hypnotics and anticonvulsants. The compounds are effective at dosages generally of from 1 to 10 mg./kg. of body weight daily. The analgesic activity was established in the standard mouse writhing test [Whittle, Brit. J. Pharmacol., 22, 296 (1964)] and confirmed in the hot plate assay [Woolfe, G. and McDonald, A. J., J. Pharmacol, Exper. Therap., 80, 300 (1944)] and the rat tail flick test.
In testing for the analgesic effect of the present compounds, the acetic acid writhing test was made as that described by [B. A. Whittle, Brit. J. Pharmacol 22, 246 (1964)]. Groups of Swiss-Webster female mice were given oral doses of the drug or control vehicle. The use of the intravenous dye was eliminated. One hour later they were given 0.4 ml. of 0.5% HOAc intraperitoneally. The number of writhes occurring in 20 minutes were counted starting 5 minutes after the injection of HOAc. Analgesic activity was reported as percent inhibition of writhing vs. controls or as ED50%.

[2] = system: pain threshold to radiant heat on tail (rat tail flick); assay: Analgesic activity, rat tail flick (RTF); type: in vivo, rat (male Sprague-Dawley); settings: oral, 2 hours after dosing
Description: as §1
In testing for analgesic activity by the rat tail flick method described by [F. E. D'Amour and D. L. Smith, J Pharmcol. Exp. Ther. 72, 74 (1941)], the method was modified as follows. Groups of male Sprague-Dawley rats weighing 140-170 g. are prepared by blackening their tails with India ink. Radiant heat is focused on their tails and adjusted so that the normal pain threshholds (time in seconds until an escape response or tail flick occurs) are in the range of 8 to 10 seconds. This is followed by oral administration of the test compound and hourly measurements of the animals' pain threshholds. The analgesic effects are listed in Table I as percent increase over initial pain threshhold 2 hours after dosing, or ED50's.

[3] = system: methamphetamine (Desoxyn)-induced motor activity; assay: Antipsychotic activity (Rat Desoxyn antagonism), motor activity; type: in vivo; settings: oral, one hour before test; for Antipsychotic activity (Rat Desoxyn antagonism): 10 mg./kg., methamphetamine 3 mg./kg. sc, vs. Desoxyn treated controls
Description: Antipsychotic Activity (Rat Desoxyn Antagonism)
Antipsychotic activity (Desoxyn antagonism) was evaluated in motor activity chambers equipped with photocells. Groups of nine rats were given the compound orally one hour before the test and then administered methamphetamine (Desoxyn) 3 mg./kg. sc, and placed in the chamber. Changes in motor activity were recorded as counts from the photocells and are compared to Desoxyn treated controls.

[4] = system: audiogenic seizure in mice; assay: Anticonvulsant activity, audiogenic seizure test (mouse); type: in vivo, mouse (male O'Grady strain); settings: 1 hr.; for Anticonvulsant activity, audiogenic seizure: % protection: 100 mg./kg.
Text: Audiogenic Seizure Test (Mouse)
Male O'Grady strain mice (14 to 16 g.) especially bred for susceptibility to audiogenic seizures were used as subjects. The audiogenic apparatus consisted of a wooden box enclosing a metal container with two doorbells attached to the upper section. […] [Ref: N. P. Plotnikoff and D. M. Green, J, Pharmacol. Exp. Ther., 119, 294 (1957)].

| Structure (SMILES) | Analgesic activity, RTF: percent increase over initial pain threshhold ([2]; 40 mg./kg.) [%] | Antipsychotic activity (Rat Desoxyn antagonism) [3] [%] | Anticonvulsant activity, audiogenic seizure: % protection [4] [%] | also measured |
| --- | --- | --- | --- | --- |
| CCCCCC(C)C(C)c1cc(OC(C)=O)c(-c2cnccc2C(C)C)c(OC(C)=O)c1 (stereo not drawn) [Compound (IX), 1,3-Diacetyl-2-[4-Isopropyl-3-Pyridyl]-5-(3-Methyl-2-Octyl)Resorcinol] | 20 |  |  | Analgesic activity, W(PO): percent inhibition of writhing vs. controls ([1]; 80 mg./kg.): 30% |
| C=C(C)c1ccncc1-c1c(OC(C)=O)cc(C(C)C(C)CCCCC)cc1OC(C)=O (stereo not drawn) [Compound (VII), 1,3-Diacetyl-2-[4-Isopropenyl-3-Pyridyl]-5-(3-Methyl-2-Octyl)Resorcinol] |  | 66 |  | Analgesic activity, RTF: percent increase over initial pain threshhold ([2]; 20 mg./kg.): 23%; ED50 ([4]; Mus musculus, protection, estimated (est.)): ~9 mg/kg |
| C=C(C)c1ccncc1-c1c(O)cc(C(C)C(C)CCCCC)cc1O (stereo not drawn) [Compound (VIII), 2-[4-Isopropenyl-3-Pyridyl]-5-(3-Methyl-2-Octyl) Resorcinol] | 59 |  | 100 | Antipsychotic activity (Rat Desoxyn antagonism), result in words ([3]; dose not stated): Inactive |
| CCCCCC(C)C(C)c1cc(O)c(-c2cnccc2C(C)C)c(O)c1 (stereo not drawn) [Compound (X), 2-[4-Isopropyl-3-pyridyl]-5-(3-methyl-2-octyl)resorcinol] | 53 |  | 60 | ED50 ([1]; Mus musculus, po): 44 mg/kg |
| C=C(C)c1ccc(C)cc1-c1c(OC(C)=O)cc(C(C)C(C)CCCCC)cc1OC(C)=O (stereo not drawn) [Compound (XI), 1,3-Diacetyl-2-[(2-isopropenyl-5-methyl)phenyl]-5-(3-methyl-2-octyl)resorcinol] |  | 55 | 70 | Analgesic activity, W(PO): percent inhibition of writhing vs. controls ([1]; 10-40 mg./kg.): 40-50% |
| CCCCCC(C)C(C)c1cc(O)c(-c2cc(C)ccc2C(C)C)c(O)c1 (stereo not drawn) [Compound (XII), 2-[(2-Isopropyl-5-methyl)phenyl]-5-(3-methyl-2-octyl)resorcinol] |  | 77 | 60 | Analgesic activity, W(PO): percent inhibition of writhing vs. controls ([1]; 40 mg./kg.): 47%; Analgesic activity, RTF: percent increase over initial pain threshhold ([2]; 22 mg./kg.): 45% |
